Columns and labels:
[1] = system: Laodelphax striatella; assay: Insecticidal test on Laodelphax striatella (rice seedling dip); type: in vivo; conditions: Laodelphax striatellus, 192 h, rice seedlings dipped 30 seconds, 3rd-instar larvae, 8 days after inoculation, read-out: insecticidal effect (corrected mortality rate), activity level
From the text: Insecticidal test on Laodelphax striatella
The heterocycle-bound condensed heterocyclic compounds represented by the general formula (1) of the present invention or salts thereof were separately dispersed in water and diluted to 500 ppm. Rice plant seedlings (variety: Nihonbare) were dipped in the agrochemical dispersions for 30 seconds. After air-dried, each seedling was put into a separate glass test tube and inoculated with ten 3rd-instar larvae of Laodelphax striatella, and then the glass test tubes were capped with cotton plugs. At 8 days after the inoculation, the numbers of surviving larvae and dead larvae were counted, the corrected mortality rate was calculated according to the formula shown below, and the insecticidal effect was evaluated according to the criteria shown below. Corrected mortality rate (%)=100×(Survival rate in a non-treatment plot−Survival rate in a treatment plot)/Survival rate in a non-treatment plot [Math. 2] Criteria A: the corrected mortality rate is 100%. B: the corrected mortality rate is 90 to 99%. C: the corrected mortality rate is 80 to 89%. D: the corrected mortality rate is 50 to 79%.

[2] = system: Plutella xylostella; assay: Insecticidal test on Plutella xylostella (dip of Chinese cabbage seedlings with laid eggs); type: in vivo; conditions: 144 h, seedlings with laid eggs dipped about 30 seconds, 25° C., 6 days after dip treatment, read-out: insecticidal effect (corrected mortality rate), activity level
From the text: Insecticidal Test on Plutella xylostella
Adults of Plutella xylostella were released onto Chinese cabbage seedlings and allowed to lay eggs thereon. At 2 days after the release of the adults, the Chinese cabbage seedlings with laid eggs were dipped for about 30 seconds in agrochemical dispersions diluted to 500 ppm, each of which contained a different kind of heterocycle-bound condensed heterocyclic compound represented by the general formula (1) of the present invention as an active ingredient. After air-dried, the seedlings were kept in a thermostatic chamber at 25° C. At 6 days after the dip treatment, the number of hatched larvae per plot was counted, the mortality rate was calculated according to the formula shown below, and the insecticidal effect was evaluated according to the criteria of Test Example 2. This test was conducted in triplicate using 10 adults of Plutella xylostella per plot. Corrected mortality rate (%)=100×(Number of hatched larvae in a non-treatment plot−Number of hatched larvae in a treatment plot)/Number of hatched larvae in a non-treatment plot [Math. 3]

SMILES | mortality at 500 ppm [1] [%] | mortality at 500 ppm [2] [%]
CCS(=O)(=O)c1cc(-c2noc(C(F)(F)F)n2)cnc1-c1nc2cc(C(F)(F)C(F)(F)F)nnc2n1C [Compound 1-41, 3-{2-(3-Methyl-6-pentafluoroethyl-3H-imidazo[4,5-C]pyridazin-2-yl)-3-(ethylsulfonyl)pyridin-5-yl}-5-trifluoromethyl-1,2,4-oxadiazole] | 100 | 100
CCS(=O)(=O)c1cc(-c2nc(-c3ccccc3)no2)cnc1-c1nc2cc(C(F)(F)C(F)(F)F)nnc2n1C [Compound 2-56, 5-{2-(3-Methyl-6-pentafluoroethyl-3H-imidazo[4,5-C]pyridazin-2-yl)-3-(ethylsulfonyl)pyridin-5-yl}-3-phenyl-1,2,4-oxadiazole] | 100 | 100

Source: patent publication US11208410B2, “Heterocycle-bound condensed heterocyclic compound or salt thereof, agricultural and horticultural insecticide comprising the compound, and method for using the insecticide” (Nihon Nohyaku Co., Ltd., priority 2016, dated 2021)
